Data taken from patent US20240335439A1, “USE OF AND METHOD FOR TELAPREVIR IN PREPARATION OF DRUG FOR TREATING AN ISCHEMIA/REPERFUSION INJURY AND CYTOPROTECTIVE DRUG” (THE THIRD XIANGYA HOSPITAL OF CENTRAL SOUTH UNIVERSITY, priority 2021, published 2024).

Key:
[1] = system: Alzheimer's disease mouse models; experiment: Alzheimer's disease mouse model (Aβ1-42 into hippocampus), new/old object recognition experiment; format: in vivo, ICR mice; settings: telaprevir 40 mg/kg intramuscular daily for 17 days; ##P<0.01 vs vehicle group, FIG. 7
Description: (§1) Experimental animals: 7-week-old healthy male ICR mice weighing 25-30 g. The experimental animals were raised for one week in an environment with a temperature of 25° C., a relative humidity of 60%, free drinking water, and timed and quantified feeding, and then administered according to the requirements of each experimental group.
Building of an Alzheimer's disease mouse model and drug treatment: Aβ1-42 was purchased from MCE Reagent Company, dissolved in DMSO, diluted with physiological saline to 2 μg/μL, and incubated in an incubator at 37° C. for 7 days to convert the Aβ1-42 into an aggregated state. […]
A learning and memory ability and cognitive function of mice were detected by a Morris water maze experiment and a new/old object recognition experiment.
According to the requirements of the new/old object recognition experiment, the experiment included three stages: an adaptation period, a training period, and a testing period. […] One of the two objects was replaced with another object with a different shape and color (denoted as C), and the time for the experimental mice to probe the two different objects within 10 minutes was recorded. […]

[2] = system: ischemic stroke mouse models; experiment: Ischemic stroke mouse model (MCAO 1 h, reperfusion 24 h); format: in vivo, C57BL/6J mice; settings: telaprevir 90 mg/kg intramuscular after 1 hour of ischemia and 1 hour of reperfusion
Description: as §1, with “7-week-old” for “7-week-old healthy”, “C57BL/6J mice.” for “ICR mice weighing 25-30 g.”
Method for building an ischemic stroke mouse model: A cerebral ischemia/reperfusion mouse model was prepared by a middle cerebral artery occlusion (MCAO) method. The steps were as follows: after an 8-week-old male C57BL/6J mouse was anesthetized by intraperitoneal injection with 0.3% pentobarbital sodium (20 mL/kg), a left common carotid artery (CCA) was isolated, and a left external carotid artery (ECA) and internal carotid artery (ICA) were isolated upwards; the ECA and ICA were temporarily occluded with ophthalmic forceps, and a proximal end of the CCA was ligated; a knotted spare silk suture was placed at a distal end of the CCA, a small incision was cut below the suture, an occlusion suture was inserted into the internal carotid artery, arterial clips on the ECA and ICA were released, and the occlusion suture was delivered into the cranium along the ICA; and when encountering resistance, the silk suture was tightened, the occlusion suture was secured. […]
Neurological function scores of mice were detected and cerebral infarct volumes were measured.

CCC[C@H](NC(=O)[C@@H]1[C@H]2CCC[C@H]2CN1C(=O)[C@@H](NC(=O)[C@@H](NC(=O)c1cnccn1)C1CCCCC1)C(C)(C)C)C(=O)C(=O)NC1CC1 [telaprevir]
cognitive index, new/old object recognition [1]: significantly increased
neurological impairment symptoms (Longa neurological function score) of mice ([2]; ##P<0.01 vs I/R, FIG. 3B): significantly improve
cerebral infarct volume of mice (TTC staining) ([2]; vs I/R, FIG. 3A): significantly decreased
